Measurements published in patent US20200399264A1, “4-SUBSTITUTED-2-THIAZOLE AMIDES AS ANTIVIRAL AGENTS” (Southern Research Institute, priority 2019, published 2020).

Columns and labels:
CHIKV = experiment: antiviral activity against CHIKV (VTR and EC90); type: cell-based; details: Chikungunya virus; for log reduction at 10 µM: read-out: VTR @ 10 μM (logs)
Text: As used herein, “EC90,” is intended to refer to the concentration of a substance (e.g., a compound or a drug) that is required for 90% agonism of a biological process, or component of a process, including a protein, subunit, organelle, ribonucleoprotein, etc. In one aspect, an EC90 can refer to the concentration of a substance that is required for 90% agonism in vivo, as further defined elsewhere herein. In a further aspect, […].

[1] = cell cytotoxicity in a cell viability assay (CC50); type: cell-based; details: concentration required for 50% cell survival
Text: As used herein, “CC50,” is intended to refer to the cell cytotoxicity to the concentration of a substance (e.g., a compound or a drug) that is required for 50% cell survival in a cell viability assay in vitro.

Structure (SMILES) | EC90 (CHIKV) | log reduction at 10 µM (CHIKV) | CC50 [1]
CSc1ncccc1C(=O)Nc1nc(-c2cccc(-c3ccccc3)c2)cs1 [Compound 1, N-(4-([1,1′-Biphenyl]-3-yl)thiazol-2-yl)-2-(methylthio)nicotinamide] | 0.38 µM | 7.82 | > 40 µM
CSc1ncccc1C(=O)Nc1nc(-c2cccc(-c3ccccn3)c2)cs1 [Compound 2, 2-(Methylthio)-N-(4-(3-(pyridin-2-yl)phenyl)thiazol-2-yl)nicotinamide] | 0.7 µM | 3.97 | > 30 µM
CSc1ncccc1C(=O)Nc1nc(-c2cccc(-c3ccncc3)c2)cs1 [Compound 3, 2-(Methylthio)-N-(4-(3-(pyridin-4-yl)phenyl)thiazol-2-yl)nicotinamide] | – | < 1 | > 40 µM
CSc1ncccc1C(=O)Nc1nc(-c2cccc(-c3ccc(C#N)cc3)c2)cs1 [Compound 4, N-(4-(4′-Cyano-[1,1′-biphenyl]-3-yl)thiazol-2-yl)-2-(methylthio)nicotinamide] | 0.31 µM | 4.73 | > 40 µM
CSc1ncccc1C(=O)Nc1nc(-c2cccc(-c3cccc(C#N)c3)c2)cs1 [Compound 5, N-(4-(3′-Cyano-[1,1′-biphenyl]-3-yl)thiazol-2-yl)-2-(methylthio)nicotinamide] | 0.098 µM | 5.25 | > 40 µM
N#Cc1ccc(-c2cccc(-c3csc(NC(=O)c4cccnc4SC(F)F)n3)c2)cc1 [Compound 6, N-(4-(4′-Cyano-[1,1′-biphenyl]-3-yl)thiazol-2-yl)-2-((difluoromethyl)thio)nicotinamide] | – | 7.6 | > 30 µM
N#Cc1ccc(-c2cccc(-c3csc(NC(=O)c4cccnc4C(F)(F)F)n3)c2)cc1 [Compound 7, N-(4-(4′-Cyano-[1,1′-biphenyl]-3-yl)thiazol-2-yl)-2-(trifluoromethyl)nicotinamide] | – | 5.09 | 8.07 µM
CC(C)(C)c1cnc(C(=O)Nc2nc(-c3cccc(-c4ccc(C#N)cc4)c3)cs2)nc1 [Compound 8, 5-(Tert-butyl)-N-(4-(4′-cyano-[1,1′-biphenyl]-3-yl)thiazol-2-yl)pyrimidine-2-carboxamide] | – | < 1 | > 40 µM
CC(C)(C)c1ccc(C(=O)Nc2nc(-c3cccc(-c4ccc(C#N)cc4)c3)cs2)cc1 [Compound 9, 4-(Tert-butyl)-N-(4-(4′-cyano-[1,1′-biphenyl]-3-yl)thiazol-2-yl)benzamide] | 0.28 µM | 4.68 | > 40 µM
COc1c(F)cc(C(=O)Nc2nc(-c3cccc(-c4ccc(C#N)cc4)c3)cs2)cc1F [Compound 10, N-(4-(4′-Cyano-[1,1′-biphenyl]-3-yl)thiazol-2-yl)-3,5-difluoro-4-methoxybenzamide] | 0.31 µM | 7.6 | > 30 µM
N#Cc1ccc(-c2cccc(-c3csc(NC(=O)C4CCNCC4)n3)c2)cc1 [Compound 11, N-(4-(4′-Cyano-[1,1′-biphenyl]-3-yl)thiazol-2-yl)piperidine-4-carboxamide] | – | 8.5 | > 30 µM
CSc1ncccc1C(=O)Nc1nc(-c2cncc(-c3ccc(C#N)cc3)c2)cs1 [Compound 12, N-(4-(5-(4-Cyanophenyl)pyridin-3-yl)thiazol-2-yl)-2-(methylthio)nicotinamide] | – | < 1 | > 40 µM
CSc1ncccc1C(=O)Nc1nc(-c2cccc(-c3ccc(C#N)cc3)n2)cs1 [Compound 13, N-(4-(6-(4-Cyanophenyl)pyridin-2-yl)thiazol-2-yl)-2-(methylthio)nicotinamide] | – | 2.72 | 16.3 µM
CSc1ncccc1C(=O)Nc1nc(-c2cccc(-c3ccc(C#N)cn3)c2)cs1 [Compound 14, N-(4-(3-(5-Cyanopyridin-2-yl)phenyl)thiazol-2-yl)-2-(methylthio)nicotinamide] | 0.62 µM | 6 | > 40 µM
CSc1ncccc1C(=O)Nc1nc(-c2cccc(-c3ccc(F)cn3)c2)cs1 [Compound 15, N-(4-(3-(5-Fluoropyridin-2-yl)phenyl)thiazol-2-yl)-2-(methylthio)nicotinamide] | 0.33 µM | 5.64 | > 40 µM
CSc1ncccc1C(=O)Nc1nc(-c2cccc(-c3ccc(F)nc3)c2)cs1 [Compound 16, N-(4-(3-(6-Fluoropyridin-3-yl)phenyl)thiazol-2-yl)-2-(methylthio)nicotinamide] | 0.33 µM | 6.09 | > 30 µM
CSc1ncccc1C(=O)Nc1nc(-c2cc(-c3ccc(C#N)cc3)ccc2F)cs1 [Compound 17, N-(4-(4′-Cyano-4-fluoro-[1,1′-biphenyl]-3-yl)thiazol-2-yl)-2-(methylthio)nicotinamide] | 0.34 µM | 5.75 | 25 µM
COc1ccc(-c2ccc(C#N)cc2)cc1-c1csc(NC(=O)c2cccnc2SC)n1 [Compound 18, N-(4-(4′-Cyano-4-methoxy-[1,1′-biphenyl]-3-yl)thiazol-2-yl)-2-(methylthio)nicotinamide] | – | 1.73 | > 40 µM
CSc1ncccc1C(=O)Nc1nc(-c2cc(F)cc(-c3ccc(C#N)cc3)c2)cs1 [Compound 19, N-(4-(4′-Cyano-5-fluoro-[1,1′-biphenyl]-3-yl)thiazol-2-yl)-2-(methylthio)nicotinamide] | 0.19 µM | 6.1 | > 30 µM
COC(=O)c1cc(-c2ccc(C#N)cc2)cc(-c2csc(NC(=O)c3cccnc3SC)n2)c1 [Compound 20, Methyl 4′-cyano-5-(2-(2-(methylthio)nicotinamido)thiazol-4-yl)-[1,1′-biphenyl]-3-carboxylate] | – | 3.23 | 17.6 µM
CSc1ncccc1C(=O)Nc1nc(-c2cc(C(=O)O)cc(-c3ccc(C#N)cc3)c2)cs1 [Compound 21, 4′-cyano-5-(2-(2-(methylthio)nicotinamido)thiazol-4-yl)-[1,1′-biphenyl]-3-carboxylic Acid] | – | < 1 | > 40 µM
CSc1ncccc1C(=O)Nc1nc(-c2cccc(-c3ccc(C#N)c(O)c3)c2)cs1 [Compound 22, N-(4-(4′-Cyano-3′-hydroxy-[1,1′-biphenyl]-3-yl)thiazol-2-yl)-2-(methylthio)nicotinamide] | 1.6 µM | 8.5 | > 30 µM
COC(=O)c1ccc(-c2cccc(-c3csc(NC(=O)c4cccnc4SC)n3)c2)cc1 [Compound 23, Methyl 3′-(2-(2-(methylthio)nicotinamido)thiazol-4-yl)-[1,1′-biphenyl]-4-carboxylate] | 0.822 µM | 8.69 | > 40 µM
CSc1ncccc1C(=O)Nc1nc(-c2cccc(-c3ccc(C(=O)O)cc3)c2)cs1 [Compound 24, 3′-(2-(2-(Methylthio)nicotinamido)thiazol-4-yl)-[1,1′-biphenyl]-4-carboxylic acid] | – | 1.49 | > 40 µM
CSc1ncccc1C(=O)Nc1nc(-c2cccc(-c3ccc(C(N)=O)cc3)c2)cs1 [Compound 25, N-(4-(4′-Carbamoyl-[1,1′-biphenyl]-3-yl)thiazol-2-yl)-2-(methylthio)nicotinamide] | 0.21 µM | 2.43 | 17.9 µM
